Results: paper PMC9363231, “High‐resolution analysis of individual spike peptide‐specific CD4 ^+ T‐cell responses in vaccine recipients and COVID‐19 patients” (Clinical & Translational Immunology, 2022)
Like-named read-outs stand apart in the source and are kept apart here.

Experiments:
HLA-DPB1*04:02 = experiment: In vitro HLA binding (data not shown); parameters: species or system human
HLA-DPB1*04:01 = biological target: T1, HLA-DPB1*04:01 (Homo sapiens, UniProt P04440+P20036); experiment: In vitro HLA binding (data not shown)
T1 sequence (P04440 30-258): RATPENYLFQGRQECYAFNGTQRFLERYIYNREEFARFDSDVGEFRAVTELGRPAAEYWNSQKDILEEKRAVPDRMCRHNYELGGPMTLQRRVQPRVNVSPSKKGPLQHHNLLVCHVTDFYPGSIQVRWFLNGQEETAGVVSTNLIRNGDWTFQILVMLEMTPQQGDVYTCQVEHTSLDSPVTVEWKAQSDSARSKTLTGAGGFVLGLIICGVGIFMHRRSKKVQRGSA
T1 sequence (P20036 29-260): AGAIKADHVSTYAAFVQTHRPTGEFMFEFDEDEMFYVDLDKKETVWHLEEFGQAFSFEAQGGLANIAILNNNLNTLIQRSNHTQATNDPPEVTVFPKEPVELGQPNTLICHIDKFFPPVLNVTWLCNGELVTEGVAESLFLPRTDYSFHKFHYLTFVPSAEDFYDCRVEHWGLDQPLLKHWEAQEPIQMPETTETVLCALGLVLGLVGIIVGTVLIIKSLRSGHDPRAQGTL

CD4+ T cells = assay type: cell-based, human
HLA-DRB1*15:01 = HLA-DRB1*15:01 (Homo sapiens, UniProt P01903+P01911); experiment: biochemical; assay type: binding
HLA-DRB1*13:02 = HLA-DRB1*13:02 (Homo sapiens, UniProt P01903+P01911, A100E/A169T/K41T/L162R/M171V/P40S/Q125H/Q178H/Q39Y/Q99D/R42S/S66N/T262R/V115G/W38E/Y61H); experiment: biochemical; assay type: binding
HLA-DRB1*07:01 = HLA-DRB1*07:01 (Homo sapiens, UniProt P01903+P01911, A100R/A102G/A103Q/D57E/D86V/E43K/F76Y/K127E/L162R/M171V/P40G/Q125H/Q99D/R33Q/R42Y/R54Q/S133A/S66F/T210M/V115G/Y107V/Y59L/Y89S); experiment: biochemical; assay type: binding
HLA-DRB1*04:05 = HLA-DRB1*04:05 (Homo sapiens, UniProt P01903+P01911, A100R/A169T/D86S/F76Y/I96L/K127E/L162R/M171V/N62H/P40V/Q125Y/R42H/S133A/S149N/S66Y/V115G/V209L/W38E); experiment: biochemical; assay type: binding
HLA-DRB1*01:01 = HLA-DRB1*01:01 (Homo sapiens, UniProt P01903+P01911, A100R/D57E/F55L/F60I/F76Y/I96L/L162R/M171V/P40L/Q125E/R42F/V115G/Y59C); experiment: biochemical; assay type: binding
HLA-DRB1*09:01 = HLA-DRB1*09:01 (Homo sapiens, UniProt P01903+P01911, A100R/A103E/D57H/D86V/F55Y/F60I/F76Y/I96F/K127E/L162R/M171V/P40D/Q125H/Q99R/R33Q/R42F/S133A/S66N/T210M/V115G/W38K/Y107V/Y59G/Y89S); experiment: biochemical; assay type: binding
HLA-DRB1*08:02 = HLA-DRB1*08:02 (Homo sapiens, UniProt P01903+P01911, A100R/A103L/A169T/F76Y/H45Y/I96F/K41T/L162R/M171V/P40S/Q125H/Q178H/Q39Y/Q99D/R218S/R42G/S66Y/V115G/W38E); experiment: biochemical; assay type: binding
HLA-DRB1*03:01 = HLA-DRB1*03:01 (Homo sapiens, UniProt P01903+P01911, A100K/A102G/A103R/A169T/F55Y/I96L/K41T/L162R/M171V/P40S/Q125H/Q178H/Q39Y/R42S/S66N/T106N/T262R/W38E/Y61H); experiment: biochemical; assay type: binding
HLA-DRB1*04:01 = HLA-DRB1*04:01 (Homo sapiens, UniProt P01903+P01911, A100K/A169T/F76Y/I96L/K127E/L162R/M171V/N62H/P40V/Q125Y/R42H/S133A/S149N/S66Y/V115G/V209L/W38E); experiment: biochemical; assay type: binding
HLA-DRB1*11:01 = HLA-DRB1*11:01 (Homo sapiens, UniProt P01903+P01911, A100R/A169T/A87E/I96F/K41T/L162R/M171V/P40S/Q125H/Q178H/Q39Y/Q99D/R42S/S66Y/T262R/V115G/W38E); experiment: biochemical; assay type: binding
HLA-DRB1*12:01 = HLA-DRB1*12:01 (Homo sapiens, UniProt P01903+P01911, A100R/A169T/D57E/D86V/F55L/H45Y/K41T/L162R/M171V/P40S/Q125H/Q178H/Q39Y/Q99D/R42G/S66L/T262R/V114A/V67L/W38E/Y59H/Y61H/Y89S); experiment: biochemical; assay type: binding

Sequence of HLA-DRB1*11:01 (P01903 26-254 limits assumed, other chains not shown): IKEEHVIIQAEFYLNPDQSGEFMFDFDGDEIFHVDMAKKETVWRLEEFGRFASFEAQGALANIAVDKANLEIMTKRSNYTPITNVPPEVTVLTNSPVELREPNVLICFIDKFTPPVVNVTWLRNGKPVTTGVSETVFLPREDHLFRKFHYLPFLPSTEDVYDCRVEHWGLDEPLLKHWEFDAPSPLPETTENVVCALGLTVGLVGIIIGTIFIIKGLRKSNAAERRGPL
Sequence of HLA-DRB1*13:02 (P01903 26-254 limits assumed, other chains not shown): as above
Sequence of HLA-DRB1*03:01 (P01903 26-254, other chains not shown): as the sequence (P01903 26-254 limits assumed, other chains not shown) above

| SMILES | IC50 (HLA-DRB1*13:02) [nM] | IC50 (HLA-DRB1*07:01) [nM] | IC50 (HLA-DRB1*04:05) [nM] | IC50 (HLA-DRB1*01:01) [nM] | IC50 (HLA-DRB1*09:01) [nM] | IC50 (HLA-DRB1*08:02) [nM] | IC50 (HLA-DRB1*03:01) [nM] | IC50 (HLA-DRB1*15:01) [nM] | IC50 (HLA-DRB1*04:01) [nM] | IC50 (HLA-DRB1*11:01) [nM] | IC50 (HLA-DRB1*12:01) [nM] | other results |
| --- | --- | --- | --- | --- | --- | --- | --- | --- | --- | --- | --- | --- |
| CC(C)C[C@H](NC(=O)[C@H](Cc1ccccc1)NC(=O)[C@@H]1CCCN1C(=O)[C@H](CC(=O)O)NC(=O)[C@H](CC(N)=O)NC(=O)[C@H](CS)NC(=O)[C@H](Cc1ccccc1)NC(=O)[C@H](CCC(N)=O)NC(=O)[C@H](Cc1ccccc1)NC(=O)[C@H](CCC(=O)O)NC(=O)[C@@H](N)CS)C(=O)NCC(=O)N[C@H](C(=O)N[C@@H](Cc1ccc(O)cc1)C(=O)N[C@@H](Cc1ccc(O)cc1)C(=O)O)C(C)C [peptide 27] |  |  |  |  |  |  |  |  |  |  |  | binding to HLA-DPB1*04:02 (HLA-DPB1*04:02): high affinity; binding to HLA-DPB1*04:01 (HLA-DPB1*04:01): high affinity; responding patients, DRB1*01:01 (CD4+ T cells; responders / study participants carrying DRB1*01:01, CD4+ IFN-γ response, peptide 10 μg mL−1, after 14 days expansion): 4/6; responding patients, DRB1*03:01 (CD4+ T cells; responders / study participants carrying DRB1*03:01, CD4+ IFN-γ response, peptide 10 μg mL−1, after 14 days expansion): 2/3; responding patients, DRB1*04:01 (CD4+ T cells; responders / study participants carrying DRB1*04:01, CD4+ IFN-γ response, peptide 10 μg mL−1, after 14 days expansion): 4/4; responding patients, DRB1*07:01 (CD4+ T cells; responders / study participants carrying DRB1*07:01, CD4+ IFN-γ response, peptide 10 μg mL−1, after 14 days expansion): 5/8; responding patients, DRB1*11:01 (CD4+ T cells; responders / study participants carrying DRB1*11:01, CD4+ IFN-γ response, peptide 10 μg mL−1, after 14 days expansion): 3/3; responding patients, DRB1*12:01 (CD4+ T cells; responders / study participants carrying DRB1*12:01, CD4+ IFN-γ response, peptide 10 μg mL−1, after 14 days expansion): 0/1; responding patients, DRB1*15:01 (CD4+ T cells; responders / study participants carrying DRB1*15:01, CD4+ IFN-γ response, peptide 10 μg mL−1, after 14 days expansion): 3/7; response frequency (RF) / recognition rate of CD4+ T-cell response (CD4+ T cells; share of the 35 participants with a CD4+ IFN-γ response to the peptide): 64%; IC50 (HLA-DRB1*15:01; read-out: in vitro binding capacity (IC50), DRB1*15:01): 7640 nM |
| CC[C@H](C)[C@H](NC(=O)[C@H](Cc1ccccc1)NC(=O)[C@@H](N)CO)C(=O)N[C@@H](CCC(=O)O)C(=O)N[C@@H](CC(=O)O)C(=O)N[C@@H](CC(C)C)C(=O)N[C@@H](CC(C)C)C(=O)N[C@@H](Cc1ccccc1)C(=O)N[C@@H](CC(N)=O)C(=O)N[C@@H](CCCCN)C(=O)N[C@H](C(=O)N[C@H](C(=O)N[C@@H](CC(C)C)C(=O)N[C@@H](C)C(=O)N[C@@H](CC(=O)O)C(=O)O)[C@@H](C)O)C(C)C [peptide 164] | 174 | 3960 | 2170 | 4350 | 1300 | 15200 | 3230 | 3170 | 1100 | 13200 | 537 |  |
| CC[C@H](C)[C@H](N)C(=O)N1CCC[C@H]1C(=O)N[C@@H](Cc1ccccc1)C(=O)N[C@@H](C)C(=O)N[C@@H](CCSC)C(=O)N[C@@H](CCC(N)=O)C(=O)N[C@@H](CCSC)C(=O)N[C@@H](C)C(=O)N[C@@H](Cc1ccc(O)cc1)C(=O)N[C@@H](CCCNC(=N)N)C(=O)N[C@@H](Cc1ccccc1)C(=O)N[C@@H](CC(N)=O)C(=O)NCC(=O)N[C@H](C(=O)NCC(=O)O)[C@@H](C)CC [peptide 180] | 13700 | 25 | 1610 | 58 | 7.9 | 553 | 11700 | 192 | 443 | 23 | 2.2 |  |
